This passage reports EC50 and IC50 results from patent publication US9522888B2, “Substituted bicyclic compounds” (BRISTOL-MYERS SQUIBB COMPANY, priority 2014, dated 2016).

The structures appear in SMILES notation.

Assay [1] concerns the target S1P3 (membranes prepared from EDG3-Gal5-bla HEK293T cells) (Homo sapiens (Human), UniProt Q99500). The assay is described as follows: Receptor [35S] GTPγS binding assay (S1P3 GTPγS). In kind it is biochemical. The note with it: phosphate examples; read-out: S1P3 GTPγS. The procedure, abridged: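 Membranes (3 μg protein/well) from S1P1/CHO cells or EDG3-Gal5-bla HEK293T cells (S1P3) were incubated 45 min at room temperature with 0.2 nM final [35S]GTPγS in HEPES pH 7.5 buffer with 10 μM GDP, MgCl2 and saponin. Bound label counted after filtration; EC50 from 11-point, 3-fold dilutions.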
(GTPγS is a poorly hydrolysed GTP analogue; its binding reports G protein activation.)

Assay [2] deals with hS1P1/CHO cells (Homo sapiens (Human), UniProt P21453). Put plainly: hS1P1 ERK phosphorylation (S1P1 pERK). In kind it is cell-based. The note with it: phosphate examples. In short, it runs like this: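 CHO cells expressing human S1P1, serum-starved 2 h, exposed to compound in HBSS/20 mM HEPES for 7 min at 37° C. Lysates assayed for phospho-ERK by SureFire kit; response given as % activation relative to 10 μM S1P.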
hS1P1/CHO cells, sequence (P21453 whole entry): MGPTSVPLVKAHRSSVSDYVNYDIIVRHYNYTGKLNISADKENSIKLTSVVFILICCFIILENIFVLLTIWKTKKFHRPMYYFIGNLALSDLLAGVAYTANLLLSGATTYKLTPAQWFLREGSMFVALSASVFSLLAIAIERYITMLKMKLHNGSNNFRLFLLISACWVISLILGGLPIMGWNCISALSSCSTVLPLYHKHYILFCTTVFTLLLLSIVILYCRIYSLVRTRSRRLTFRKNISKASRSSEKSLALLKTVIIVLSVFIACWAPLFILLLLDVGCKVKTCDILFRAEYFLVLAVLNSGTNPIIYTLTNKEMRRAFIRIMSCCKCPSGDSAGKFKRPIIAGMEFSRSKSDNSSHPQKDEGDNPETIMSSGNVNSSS

Assay [3] has as its target human S1P1 (Homo sapiens (Human), UniProt P21453). Put plainly: S1P1 binding assay (33P-S1P radioligand competition, CHO cell membranes). The note with it: phosphate examples; read-out: S1P1 Binding. In short, it runs like this:
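Radioligand is 33P-S1P, competing for membranes from human S1P1-expressing CHO cells. Membranes resuspended in 50 mM HEPES pH 7.5, 100 mM NaCl, 1 mM MgCl2, 2 mM EDTA.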

Assay [4] deals with S1P1 (membranes prepared from S1P1/CHO cells) (Homo sapiens (Human), UniProt P21453). Put plainly: Receptor [35S] GTPγS binding assay (S1P1 GTPγS). In kind it is biochemical. The note with it: phosphate examples; read-out: S1P1 GTPγS. In short, it runs like this: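 Membranes from S1P1-expressing CHO cells (3 μg protein/well) incubated with compound (11-point, 3-fold dilution) and 0.2 nM final [35S]GTPγS, 45 min at room temperature. Assay buffer: 20 mM HEPES pH 7.5, 10 mM MgCl2, 150 mM NaCl, 10 μM GDP, 0.1% fatty-acid-free BSA, 10 μg/ml saponin. Filter-bound radioactivity counted by scintillation; EC50 derived.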
S1P1 (membranes prepared from S1P1/CHO cells), sequence (P21453 whole entry): as above

S1P3 (membranes prepared from EDG3-Gal5-bla HEK293T cells), sequence (Q99500 whole entry): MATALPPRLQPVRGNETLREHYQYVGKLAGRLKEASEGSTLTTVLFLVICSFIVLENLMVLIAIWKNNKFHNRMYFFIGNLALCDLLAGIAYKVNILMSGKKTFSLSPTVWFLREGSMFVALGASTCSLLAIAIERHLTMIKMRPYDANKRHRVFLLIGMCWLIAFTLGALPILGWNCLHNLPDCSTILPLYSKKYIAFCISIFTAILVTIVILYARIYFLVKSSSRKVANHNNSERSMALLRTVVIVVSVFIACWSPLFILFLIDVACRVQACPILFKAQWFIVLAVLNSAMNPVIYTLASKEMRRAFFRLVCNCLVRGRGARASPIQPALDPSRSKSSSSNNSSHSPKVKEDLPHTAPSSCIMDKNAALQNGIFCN
human S1P1, sequence (P21453 whole entry): as the sequence (P21453 whole entry) above

For `N[C@@]1(COP(=O)(O)O)CC[C@@H](c2ccc3c(c2)CC[C@@H](CCc2ccc4ccccc4n2)C3)C1` [compound 605], the EC50 is more than 625 nM in assay [1], less than 10 nM in assay [2] and less than 10 nM in assay [4]. The IC50 in assay [3] was less than 10 nM.
For the compound `CC(C)OCCCC[C@H]1CCc2cc([C@H]3CC[C@](N)(COP(=O)(O)O)C3)ccc2C1` [compound 610], the EC50 in assay [1] was more than 100 nM; in assay [2], less than 10 nM; in assay [4], less than 10 nM. The IC50 in assay [3] was in the range of 10 to 100 nM.
For `N[C@]1(COP(=O)(O)O)CC[C@H](c2ccc3c(c2)CC[C@H](CS(=O)(=O)c2ccccc2)C3)C1` [compound 618], the EC50 in assay [1] is more than 625 nM; in assay [2], less than 10 nM; in assay [4], 100 to 1000 nM. Also, the IC50 in assay [3] fell in the range of 100 to 1000 nM.
Turning to `CCCCC(C)(C)C(=O)OC1CCc2cc([C@H]3CC[C@@](N)(COP(=O)(O)O)C3)ccc2C1` (stereo partly shown) [compound 624], the figures for the EC50 in assay [1], in assay [2] and in assay [4] were more than 625 nM, 100 to 1000 nM and less than 10 nM, respectively. Also, in assay [3], the IC50 lay within 1000 to 10000 nM.
For `CCCCCCNC(=O)OC1CCc2cc([C@H]3CC[C@@](N)(COP(=O)(O)O)C3)ccc2C1` (stereo partly shown) [compound 626] the same measures were more than 625 nM, less than 10 nM, 10 to 100 nM and 10 to 100 nM.
For `CCCCCC(=O)NC1CCc2cc([C@H]3CC[C@@](N)(COP(=O)(O)O)C3)ccc2C1` (stereo partly shown) [compound 629] the same measures were more than 625 nM, less than 10 nM, 100 to 1000 nM and 100 to 1000 nM.
The like results for `CCCC[C@H]1CCCC2(CCc3cc([C@H]4CC[C@](N)(COP(=O)(O)O)C4)ccc3C2)O1` (stereo partly shown) [compound 632] were, in that order, more than 625 nM, less than 10 nM, 10 to 100 nM and 10 to 100 nM.
Regarding `CCCC[C@@H]1CCCC2(CCc3cc([C@H]4CC[C@](N)(COP(=O)(O)O)C4)ccc3C2)O1` (stereo partly shown) [compound 633], the EC50 in assay [1] is more than 625 nM; in assay [2], less than 10 nM; in assay [4], 100 to 1000 nM. Besides, the IC50 in assay [3] fell in the range of 10 to 100 nM.
For `CCCCC1CCc2cc([C@H]3CC[C@](N)(COP(=O)(O)O)C3)ccc2C1=O` (stereo partly shown) [compound 635] the same measures were more than 625 nM, less than 10 nM, 10 to 100 nM and less than 10 nM.
The like results for `CCCC/C=C/[C@@H]1CCc2cc([C@H]3CC[C@](N)(COP(=O)(O)O)C3)ccc2C1` [compound 636] were, in that order, more than 625 nM, 10 to 100 nM, 10 to 100 nM and 10 to 100 nM.
For the compound `CCCC/C=C/[C@@H]1CCc2cc([C@H]3CC[C@](N)(COP(=O)(O)O)C3)ccc2C1` [compound 637], the results for the EC50 in assay [1], in assay [2] and in assay [4] were more than 625 nM, 10 to 100 nM and 10 to 100 nM, respectively. The IC50 in assay [3] was less than 10 nM.
Take `COCCC/C=C/[C@H]1CCc2cc([C@H]3CC[C@](N)(COP(=O)(O)O)C3)ccc2C1` [compound 638]: the EC50 in assay [1] was more than 100 nM; in assay [2], less than 10 nM; in assay [4] it was 10 to 100 nM. The IC50 in assay [3] is less than 10 nM.
With `C=CCC/C=C/[C@@H]1CCc2cc([C@H]3CC[C@](N)(COP(=O)(O)O)C3)ccc2C1` [compound 639], the EC50 is more than 625 nM in assay [1], 10 to 100 nM in assay [2] and 10 to 100 nM in assay [4]. Besides, the IC50 in assay [3] is 10 to 100 nM.
Consider `COCCC/C=C/[C@@H]1CCc2cc([C@H]3CC[C@](N)(COP(=O)(O)O)C3)ccc2C1` [compound 640], for which the EC50 was more than 625 nM in assay [1], less than 10 nM in assay [2] and less than 10 nM in assay [4]. Also, in assay [3], the IC50 is less than 10 nM.
Turning to `COc1ccccc1/C=C/[C@@H]1CCc2cc([C@H]3CC[C@](N)(COP(=O)(O)O)C3)ccc2C1` [compound 641], the values for the EC50 in assay [1], in assay [2] and in assay [4] were more than 625 nM, 10 to 100 nM and 10 to 100 nM, respectively. The IC50 in assay [3] was 100 to 1000 nM.
Turning to `N[C@]1(COP(=O)(O)O)CC[C@H](c2ccc3c(c2)CC[C@@H](/C=C/C2CCOCC2)C3)C1` [compound 642], the EC50 was more than 625 nM in assay [1], less than 10 nM in assay [2] and less than 10 nM in assay [4]. The IC50 in assay [3] fell in the range of 10 to 100 nM.
In the case of `COc1cccc(/C=C/[C@@H]2CCc3cc([C@H]4CC[C@](N)(COP(=O)(O)O)C4)ccc3C2)c1` [compound 643], the results for the EC50 in assay [1], in assay [2] and in assay [4] were more than 625 nM, 10 to 100 nM and 10 to 100 nM, respectively. Moreover, in assay [3], the IC50 is less than 10 nM.
As to `Cc1cccc(/C=C/[C@@H]2CCc3cc([C@H]4CC[C@](N)(COP(=O)(O)O)C4)ccc3C2)c1` [compound 644], the values for the EC50 in assay [1], in assay [2] and in assay [4] were more than 625 nM, 100 to 1000 nM and 10 to 100 nM, respectively. In addition, the IC50 in assay [3] fell in the range of 100 to 1000 nM.
For `CC(C)CC/C=C/[C@@H]1CCc2cc([C@H]3CC[C@](N)(COP(=O)(O)O)C3)ccc2C1` [compound 645], the EC50 in assay [1] was more than 625 nM; in assay [2] it was 10 to 100 nM; in assay [4], 10 to 100 nM. Besides, the IC50 in assay [3] was in the range of 100 to 1000 nM.
Turning to `CCCCC=C[C@H]1CCc2cc([C@H]3CC[C@](N)(COP(=O)(O)O)C3)ccc2C1` [compound 648], the EC50 was more than 625 nM in assay [1], 10 to 100 nM in assay [2] and 10 to 100 nM in assay [4]. Moreover, the IC50 in assay [3] was in the range of 10 to 100 nM.
Regarding `CC/C=C/CC[C@@H]1CCc2cc([C@H]3CC[C@](N)(COP(=O)(O)O)C3)ccc2C1` [compound 650], the figures for the EC50 in assay [1], in assay [2] and in assay [4] were more than 625 nM, 10 to 100 nM and 100 to 1000 nM, respectively. In assay [3], the IC50 fell in the range of 10 to 100 nM.
On to `CC/C=C\CC[C@@H]1CCc2cc([C@H]3CC[C@](N)(COP(=O)(O)O)C3)ccc2C1` [compound 651], for which the EC50 in assay [1] was more than 625 nM; in assay [2], 10 to 100 nM; in assay [4] it was 10 to 100 nM. Besides, in assay [3], the IC50 was 10 to 100 nM.
Regarding `C/C=C\CCC[C@@H]1CCc2cc([C@H]3CC[C@](N)(COP(=O)(O)O)C3)ccc2C1` [compound 656], the EC50 was more than 625 nM in assay [1], 10 to 100 nM in assay [2] and 10 to 100 nM in assay [4]. In addition, in assay [3], the IC50 lay within 10 to 100 nM.
For the compound `C/C=C\CCC[C@H]1CCc2cc([C@H]3CC[C@](N)(COP(=O)(O)O)C3)ccc2C1` [compound 657], the EC50 in assay [1] was more than 625 nM; in assay [2], 10 to 100 nM; in assay [4], less than 10 nM. In assay [3], the IC50 lay within 10 to 100 nM.
As for `CC/C=C/CC[C@H]1CCc2cc([C@H]3CC[C@](N)(COP(=O)(O)O)C3)ccc2C1` [compound 658], the EC50 is more than 625 nM in assay [1], less than 10 nM in assay [2] and 10 to 100 nM in assay [4]. In addition, the IC50 in assay [3] was less than 10 nM.
On to `C/C=C/CCCC[C@H]1CCc2cc([C@H]3CC[C@](N)(COP(=O)(O)O)C3)ccc2C1` [compound 659], for which the figures for the EC50 in assay [1], in assay [2] and in assay [4] were more than 625 nM, 10 to 100 nM and less than 10 nM, respectively. For the same compound, the IC50 in assay [3] is less than 10 nM.
`C/C=C\CCCC[C@H]1CCc2cc([C@H]3CC[C@](N)(COP(=O)(O)O)C3)ccc2C1` [compound 660]: the EC50 in assay [1] is more than 625 nM; in assay [2] it was 10 to 100 nM; in assay [4], less than 10 nM. Besides, in assay [3], the IC50 is less than 10 nM.
For `C/C=C\CCCC[C@@H]1CCc2cc([C@H]3CC[C@](N)(COP(=O)(O)O)C3)ccc2C1` [compound 661], the EC50 in assay [1] was more than 625 nM; in assay [2], less than 10 nM; in assay [4], less than 10 nM. In addition, the IC50 in assay [3] was less than 10 nM.
As to `C/C(=N\OCc1ccccc1)[C@@H]1CCc2cc([C@H]3CC[C@](N)(COP(=O)(O)O)C3)ccc2C1` [compound 664], the EC50 in assay [1] is more than 625 nM; in assay [2], less than 10 nM; in assay [4] it was less than 10 nM. Further, in assay [3], the IC50 is less than 10 nM.
With `CCCCO/N=C(\C)[C@@H]1CCc2cc([C@H]3CC[C@](N)(COP(=O)(O)O)C3)ccc2C1` [compound 665], the EC50 was more than 625 nM in assay [1], 10 to 100 nM in assay [2] and less than 10 nM in assay [4]. The IC50 in assay [3] was less than 10 nM.
Turning to `CCCC[S+]([O-])C[C@@H]1CCc2cc([C@H]3CC[C@](N)(COP(=O)(O)O)C3)ccc2C1` (stereo partly shown) [compound 668], the EC50 in assay [1] is more than 625 nM; in assay [2], 10 to 100 nM; in assay [4] it was less than 10 nM. Besides, the IC50 in assay [3] is less than 10 nM.
